Literature values in article PMC3657752 (Inflammatory bowel diseases, 2011).

Key:
[1] = system: colorectal, colon, and breast cancer models
[2] = system: Experimental Autoimmune Encephalomyelitis (EAE) model; conditions: promoting permissive remyelination of spinal cord

Compound: CCN(CC)CCNc1ccc2ncn3c4ccc(O)cc4c(=O)c1c23 [Symadex]
- activity in models of colorectal, colon, and breast cancer [1]: demonstrated activity
- activity in EAE model [2]: active
